These results are taken from BindingDB's records for patent US12319655 (Deciphera Pharmaceuticals, 2025).

The target in experiment [1] is T1, Serine/threonine-protein kinase B-raf [416-766,V600E] (Homo sapiens, UniProt P15056, V600E).
T1 construct: 416-766
Nature of the experiment: Biochemical Assay for B-Raf (V600E) (1). Here is the method:
Activity of B-Raf (V600E) (SEQ. ID NO: 4) kinase was determined spectroscopically using a coupled pyruvate kinase/lactate dehydrogenase assay that continuously monitors the ATP hydrolysis-dependent oxidation of NADH (e.g., Schindler et al., Science, 2000, 289, 1938-1942). Assays were conducted in 384-well plates (100 μL final volume) using 0.03 nM B-Raf (SignalChem), 1.5 units pyruvate kinase, 2.1 units lactate dehydrogenase, 1 mM phosphoenol pyruvate, 0.28 mM NADH, 30.1 nM MEK (SignalChem), and 1 mM ATP in assay buffer (100 mM Tris, Ph 7.5, 15 mM MgCl2, 0.5 mM DTT, 0.1% octyl-glucoside, 0.002% (w/v) BSA, and 0.002% Triton X-100). Inhibition of B-Raf (V600E) was measured by adding serial diluted test compound (final assay concentration of 1% DMSO). A decrease in absorption at 340 nm was monitored continuously for 6 h at 30° C. on a multi-mode microplate reader (BioTek). The reaction rate was calculated using the 3 to 4 h time frame. The reaction rate at each concentration of compound was converted to percent inhibition using controls (i.e., reaction with no test compound and reaction with a known inhibitor) and IC50 values were calculated by fitting a four-parameter sigmoidal curve to the data using Prism (GraphPad software).

For experiment [2], the target named is T2, RAF proto-oncogene serine/threonine-protein kinase [306-648,Y340D,Y341D] (Homo sapiens, UniProt P04049, Y340D/Y341D).
T2 construct: 306-648
T2 sequence (P04049 306-648 Y340D/Y341D): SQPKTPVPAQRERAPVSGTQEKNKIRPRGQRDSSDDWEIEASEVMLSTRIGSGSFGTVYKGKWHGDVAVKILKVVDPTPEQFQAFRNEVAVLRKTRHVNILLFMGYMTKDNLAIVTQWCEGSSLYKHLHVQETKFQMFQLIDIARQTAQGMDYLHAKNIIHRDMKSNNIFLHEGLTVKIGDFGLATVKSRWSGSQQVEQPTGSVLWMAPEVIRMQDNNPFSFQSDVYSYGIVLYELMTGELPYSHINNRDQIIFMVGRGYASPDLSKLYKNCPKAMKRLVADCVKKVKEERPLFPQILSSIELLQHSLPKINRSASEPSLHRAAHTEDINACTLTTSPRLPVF
Briefly: Biochemical Assay for C-Raf (1). Here is the method: (§1) Activity of C-Raf kinase (SEQ. ID NO: 3) was determined spectroscopically using a coupled pyruvate kinase/lactate dehydrogenase assay that continuously monitors the ATP hydrolysis-dependent oxidation of NADH (e.g., Schindler et al., Science, 2000, 289, 1938-1942). Assays were conducted in 384-well plates (100 μL final volume) using 0.43 nM C-Raf (Sigma), 1.5 units pyruvate kinase, 2.1 units lactate dehydrogenase, 1 mM phosphoenol pyruvate, 0.28 mM NADH, 30.1 nM MEK (SignalChem), and 1 mM ATP in assay buffer (100 mM Tris, Ph 7.5, 15 mM MgCl2, 0.5 mM DTT, 0.1% octyl-glucoside, 0.002% (w/v) BSA, and 0.002% Triton X-100). Inhibition of C-Raf was measured by adding serial diluted test compound (final assay concentration of 1% DMSO). A decrease in absorption at 340 nm was monitored continuously for 6 h at 30° C. on a multi-mode microplate reader (BioTek). The reaction rate was calculated using the 4 to 5 h time frame. The reaction rate at each concentration of compound was converted to percent inhibition using controls (i.e., reaction with no test compound and reaction with a known inhibitor) and IC50 values were calculated by fitting a four-parameter sigmoidal curve to the data using Prism (GraphPad software).

For experiment [3], the target named is T3, Serine/threonine-protein kinase B-raf [416-766] (UniProt P15056).
T3 construct: 416-766
T3 sequence (P15056 416-766): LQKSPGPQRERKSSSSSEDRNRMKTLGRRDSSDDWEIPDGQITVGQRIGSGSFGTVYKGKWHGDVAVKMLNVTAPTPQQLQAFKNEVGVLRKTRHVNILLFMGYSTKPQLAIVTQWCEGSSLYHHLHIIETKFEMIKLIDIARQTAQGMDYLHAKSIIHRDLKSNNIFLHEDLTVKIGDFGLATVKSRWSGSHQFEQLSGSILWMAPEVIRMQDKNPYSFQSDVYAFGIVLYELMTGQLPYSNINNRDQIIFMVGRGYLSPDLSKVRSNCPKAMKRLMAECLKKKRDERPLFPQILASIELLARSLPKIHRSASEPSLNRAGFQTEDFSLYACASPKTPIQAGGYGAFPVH
Nature of the experiment: Biochemical Assay for B-Raf (1). As to the method:
as §1, with “B-Raf” for “C-Raf”, “2)” for “3)”, “0.13” for “0.43”

T1 sequence (P15056 416-766 V600E): as the sequence (P15056 416-766) above, with V185E counted along it

Usually IC50 stands for the point on the concentration scale where inhibition reaches its midpoint. Low readings indicate higher potency, high ones lower potency. `Cc1ccc(NC(=O)c2ccnc(C(F)(F)F)c2)cc1-c1cc(-c2ccnc(N)c2)n(C)c(=O)c1` [US12319655, Example 53] showed an IC50 in experiment [1] of under 100 nM.

With `Cc1ccc(NC(=O)c2ccnc(C(C)(C)C#N)c2)cc1-c1ccnc(-c2ccncc2)c1` [US12319655, Example 55], the 50% inhibitory concentration (IC50) in experiment [2] and in experiment [3] was under 100 nM each time.

`Cc1ccc(NC(=O)c2ccnc(C(F)(F)F)c2)cc1-c1cccc(-c2ccnc(NC(=O)C3CC3)c2)c1` [US12319655, Example 58]: the half-inhibitory concentration (IC50) in experiment [1] and in experiment [2] was under 100 nM each time.

For `Cc1ccc(NC(=O)c2cnnc(C3CC3)c2)cc1-c1nccc(-c2ccnc(NC(=O)C3CC3)c2)n1` [US12319655, Example 272], the half-inhibitory concentration (IC50) in experiment [2] and in experiment [3] was under 100 nM throughout.
